Consider 11 molecules from patent publication EP4772510A2, “BENZAZEPINONE COMPOUND AND USE THEREOF” (HANGZHOU BIO-SINCERITY PHARMA-TECHCO., LTD., priority 2023, dated 2025).

One test deals with HT-29 cells. Put plainly: Inhibition of TNF-α-induced necroptosis of HT-29 cells (SRB method). The format is cell-based, human. The settings on record: Homo sapiens, HT-29, TNF-α 20 ng/mL + BV6 2 µM + Z-VAD-FMK 20 µM, 18 h. The text has this: Example 57: Inhibition of TNF-α-Induced Necroptosis of HT-29 Cells by Compounds
• 1. Experimental reagents: McCOY's 5A culture medium, fetal bovine serum, penicillin-streptomycin, trypsin, PBS, TNF-α (MCE, HY-P7058), BV6 (MCE, HY-16701), Z-VAD-FMK (MCE, HY-16658B), SRB kit (Shanghai BestBio Biotechnology Co., Ltd., BB-4208-500T). • 2. Experimental instruments: medical low-temperature freezer (Thermo Fisher scientific, 902-ULTS), electrically heated thermostatic water bath (Shanghai Bluepard Instruments Co., Ltd., CD-420), low-speed centrifuge (ANHUI USTC Zonkia Scientific Instruments Co., Ltd, SC-3616), carbon dioxide incubator (Shanghai Bluepard Instruments Co., Ltd., BPN-150CH(UV)), inverted microscope (Olympus, CKX53), multi-functional microplate reader (Thermo Tecan, SPARK), class-II biosafety cabinet (AIRTECH, BSC-1304IIA2), and desktop cell counter (Thermo Fisher Scientific, Countess II). • 3. Cell culturing: HT-29 cells (human colon cancer cells) were cultured in a McCOY's 5A culture solution containing 10% fetal bovine serum and 1% penicillin-streptomycin solution in a 5% CO 2 at 37 °C and a saturated humidity, and culture medium changes and cell passaging were performed 3-4 times a week. • 4. […] The culture medium, trypsin, etc., were taken out from the freezer and transferred to the water bath for pre-heating. An appropriate amount of these substances was then taken for use. • (2) The old culture medium in the flask was aspirated using a sterile pipette and discarded, and the cells were washed 3 times with PBS. 1 mL of trypsin (25 cm^2 cell culture flask) was added into the flask, and the flask was gently shaken to allow the trypsin to cover all the cell surfaces. Digestion was performed in an incubator at 37 °C. After 2 min of digestion, the flask was placed under a microscope for observation. […] The mixture was gently pipetted using a pipette to homogenize the cells and thus prepare a single-cell suspension, and the cells were counted. • (5) The cells were diluted to 3 × 10^5/mL and seeded into a 96-well plate at 100 µL/well, such that there were 3 × 10^4 cells per well in the 96-well plate. The cells were incubated in a 5% CO2 incubator at 37 °C and a saturated humidity for 24 h, followed by the addition of compounds. • 4.2 Dilution and addition of compounds: • (1) TNF-α was dissolved in PBS to obtain a 100 µg/mL stock solution and aliquoted; Z-VAD-FMK was dissolved in DMSO to obtain a 10 mM stock solution and aliquoted; BV6 was dissolved in DMSO to obtain a 10 mM stock solution and aliquoted; GSK2982772 was dissolved in DMSO to obtain a 10 mM stock solution and aliquoted. One aliquot of each stock solution was stored at -20 °C for immediate use, while the remaining aliquots were stored at - 80 °C and used within their shelf life. • (2) McCOY's 5A culture solution containing TNF-α, BV6, and Z-VAD-FMK was prepared. For the positive control group and the test compound groups, the McCOY's 5A culture solution was added at 90 µL/well, and 10 µL of the culture medium containing the test compound was also added, thus making the final concentrations of TNF-α, BV6, and Z-VAD-FMK be 20 ng/mL, 2 µM, and 20 µM, respectively. For the DMSO (5‰) control group, 90 µL of the McCOY's 5A complete culture solution was added, and then 10 µL of DMSO was added, thus making the final concentration 5‰. • (3) Each target compound was three-fold diluted with a culture medium to 8 concentration gradients, with each concentration set in duplicate (10 µL/well). The final concentrations of each target compound were 1000.00/333.33/111.11/37.04/12.35/4.12/1.37/0.46 nM. • (4) The 96-well plate cultured for 24 h was taken out from the incubator, and the culture medium in the 96-well plate was carefully aspirated and discarded. A positive control group, test compound groups, and a DMSO (5‰) control group were set, and 10 µL of the corresponding compound was added to each group. […]

The next test has as its system U937 cells. Put plainly: Inhibition of TNF-α-induced necroptosis of U937 cells (CCK-8 assay). The following applies: Homo sapiens, U-937, TNF-α 20 ng/mL + BV6 2 µM + Z-VAD-FMK 20 µM, 18 h. It counts as cell-based, human. The text has this: Example 56: Inhibition of TNF-α-Induced Necroptosis of U937 Cells by Compounds
• 1. Experimental reagents: RPMI-1640 culture medium, fetal bovine serum, penicillin-streptomycin, TNF-α (MCE, HY-P7058), BV6 (MCE, HY-16701), Z-VAD-FMK (MCE, HY-16658B), and CCK-8 (Dalian Meilun Biotech Co., Ltd., MA0218). • 2. Experimental instruments: medical low-temperature freezer (Thermo Fisher scientific, 902-ULTS), electrically heated thermostatic water bath (Shanghai Bluepard Instruments Co., Ltd., CD-420), low-speed centrifuge (ANHUI USTC Zonkia Scientific Instruments Co., Ltd, SC-3616), carbon dioxide incubator (Shanghai Bluepard Instruments Co., Ltd., BPN-150CH(UV)), inverted microscope (Olympus, CKX53), multi-functional microplate reader (Thermo Tecan, SPARK), class-II biosafety cabinet (AIRTECH, BSC-1304IIA2), and desktop cell counter (Thermo Fisher Scientific, Countess II). • 3. Cell culturing: U937 cells (human histiocytic lymphoma cells) were cultured in an RPMI-1640 culture solution containing 10% fetal bovine serum and 1% penicillin-streptomycin solution in a 5% CO2 incubator at 37 °C and a saturated humidity. The cell culture flask was vertically placed in the incubator. A T25 culture flask was used as an example, the culture solution in the flask was 6-8 mL, and culture medium changes and cell passaging were performed 3-4 times a week. • 4. […] The culture medium was taken out from the freezer and transferred to the water bath for pre-heating. An appropriate amount of culture medium was then taken for use. • (2) The cell suspension was transferred to a 15 mL sterile centrifuge tube and centrifuged at 850 rpm for 4 min to collect U937 cells. • (3) The supernatant was carefully discarded, and an appropriate amount of culture medium was added. The mixture was gently pipetted using a pipette to homogenize the cells and thus prepare a single-cell suspension, and the cells were counted. • (4) The cells were diluted to 4 × 10^5/mL and seeded into a 96-well plate at 90 µL/well, such that the cell density in the 96-well plate was 3.6 × 10 ^4 cells/well. The cells were incubated in a 5% CO 2 incubator at 37 °C and a saturated humidity for 6 h, followed by the addition of compounds. • 4.2 Dilution and addition of compounds: • (1) TNF-α was dissolved in PBS to obtain a 100 µg/mL stock solution and aliquoted; Z-VAD-FMK was dissolved in DMSO to obtain a 10 mM stock solution and aliquoted; BV6 was dissolved in DMSO to obtain a 10 mM stock solution and aliquoted; GSK2982772 was dissolved in DMSO to obtain a 10 mM stock solution and aliquoted. One aliquot of each stock solution was stored at -20 °C for immediate use, while the remaining aliquots were stored at - 80 °C and used within their shelf life. • (2) RPMI-1640 culture medium containing TNF-α, BV6, and Z-VAD-FMK was prepared (5 µL/per well), such that the final concentrations of TNF-α, BV6, and Z-VAD-FMK were 20 ng/mL, 2 µM, and 20 µM, respectively. • (3) Each target compound was three-fold diluted with a culture medium to 8 concentration gradients, with each concentration set in duplicate (5 µL/well). The final concentrations of each target compound were 1000.00/333.33/111.11/37.04/12.35/4.12/1.37/0.46 nM. • (4) The 96-well plate containing 90 µL of cell suspension was taken out from an incubator, and a positive control group, test compound groups, and a DMSO (5‰) control group were set. 5 µL of RPMI-1640 culture solution containing TNF-α, BV6, and Z-VAD-FMK and 5 µL of culture solution containing the test compound were added to the positive control group and the test compound groups. After compound addition, the mixtures were cultured for 18 h, followed by the CCK-8 assay. • (5) The 96-well plate was taken out, and the CCK-8 reagent was carefully added at 10 µL/well. The mixtures were incubated at 37 °C for 2-4 h, and the absorbance value was measured at a wavelength of 450 nm. • 5. Evaluation of inhibitory activity of compounds on TNF-α-induced necroptosis of U937 [formula] […]

Take `O=C(NC1CCc2cc(C#Cc3ccncc3)cc3c2N(CC3)C1=O)c1nnc(Cc2ccccc2)[nH]1` (stereo not shown) [Compound I-4, 5-benzyl-N-(4-oxo-9-(pyridin-4-ylethynyl)-1,2,3,4,6,7-hexahydroazepino[3,2,1-hi]indol-3-yl)-4H-1,2,4-triazole-3-carboxamide]: the EC50 in the test on HT-29 cells and in the test with U937 cells was 100 to 200 nM each time.

For the molecule `O=C(NC1CCc2cc(C#Cc3ccncc3)cc3c2N(CC3)C1=O)c1nnc(Cc2c(Cl)cccc2Cl)[nH]1` (stereo not shown) [Compound I-13, 5-(2,6-dichlorobenzyl)-N-(4-oxo-9-(pyridin-4-ylethynyl)-1,2,3,4,6,7-hexahydroazepino[3,2,1-hi]indol-3-yl)-4H-1,2,4-triazole-3-carboxamide], the EC50 in the test with HT-29 cells and in the test on U937 cells was greater than 200 nM in each case.

Regarding `O=C(NC1CCc2ccc(C#Cc3ccncc3)c3c2N(CC3)C1=O)c1nnc(Cc2ccccc2)[nH]1` (stereo not shown) [II-4, 5-benzyl-N-(4-oxo-8-(pyridin-4-ylethynyl)-1,2,3,4,6,7-hexahydroazepino[3,2,1-hi]indol-3-yl)-4H-1,2,4-triazole-3-carboxamide], the EC50 with HT-29 cells was 100 to 200 nM; in the test on U937 cells, 10 to 100 nM.

For `O=C(NC1CCc2cc(C#CC3CC3)cc3c2N(CC3)C1=O)c1nnc(Cc2ccccc2)[nH]1` (stereo not shown) [Compound I-1, 5-benzyl-N-(9-(cyclopropylethynyl)-4-oxo-1,2,3,4,6,7-hexahydroazepino[3,2,1-hi]indol-3-yl)-4H-1,2,4-triazole-3-carboxamide], the 50% effective concentration (EC50) with HT-29 cells is 100 to 200 nM; in the test on U937 cells, greater than 200 nM.

For `Cc1ccccc1Cn1cnc(C(=O)NC2CCc3cc(C#Cc4cnn(C(F)F)c4)cc4c3N(CC4)C2=O)n1` (stereo not shown) [III-22, N-(9-((1-(difluoromethyl)-1H-pyrazol-4-yl)ethynyl)-4-oxo-1,2,3,4,6,7-hexahydroazepino[3,2,1-hi]indol-3-yl)-1-(2-methylbenzyl)-1H-1,2,4-triazole-3-carboxamide], the EC50 was in the range of 5 to 10 nM in the test with HT-29 cells and 10 to 100 nM with U937 cells.

Take `CC(C)(O)C#Cc1cc2c3c(c1)CCN3C(=O)C(NC(=O)c1ncn(Cc3c(F)cccc3F)n1)CC2` (stereo not shown) [III-4, 1-(2,6-difluorobenzyl)-N-(9-(3-hydroxy-3-methylbut-1-yn-1-yl)-4-oxo-1,2,3,4,6,7-hexahydroazepino[3,2,1-hi]indol-3-yl)-1H-1,2,4-triazole-3-carboxamide]: the EC50 with HT-29 cells and in the test with U937 cells was less than 5 nM each time.

Turning to `O=C(NC1CCc2cc(C#Cc3cnn(C(F)F)c3)cc3c2N(CC3)C1=O)c1ncn(Cc2ccc(F)c(F)c2)n1` (stereo not shown) [III-23, 1-(3,4-difluorobenzyl)-N-(9-((1-(difluoromethyl)-1H-pyrazol-4-yl)ethynyl)-4-oxo-1,2,3,4,6,7-hexahydroazepino[3,2,1-hi]indol-3-yl)-1H-1,2,4-triazole-3-carboxamide], the EC50 in the test with HT-29 cells and with U937 cells was 10 to 100 nM throughout.

Take `O=C(NC1CCc2cc(C#Cc3cnn(C(F)F)c3)cc3c2N(CC3)C1=O)c1ncn(Cc2ccc(F)cc2)n1` (stereo not shown) [III-24, N-(9-((1-(difluoromethyl)-1H-pyrazol-4-yl)ethynyl)-4-oxo-1,2,3,4,6,7-hexahydroazepino[3,2,1-hi]indol-3-yl)-1-(4-fluorobenzyl)-1H-1,2,4-triazole-3-carboxamide]: the EC50 in the test on HT-29 cells lay in the range of 10 to 100 nM; in the test with U937 cells it was 5 to 10 nM.

As to `CC(C)(O)C#Cc1cc2c3c(c1)CCN3C(=O)C(NC(=O)c1nnc(Cc3ccccc3)[nH]1)CC2` (stereo not shown) [Compound I-7, 5-benzyl-N-(9-(3-hydroxy-3-methylbut-1-yn-1-yl)-4-oxo-1,2,3,4,6,7-hexahydroazepino[3,2,1-hi]indol-3-yl)-4H-1,2,4-triazole-3-carboxamide], the 50% effective concentration (EC50) with HT-29 cells is greater than 200 nM; in the test on U937 cells, 100 to 200 nM.

Regarding `COCC#Cc1cc2c3c(c1)CCN3C(=O)C(NC(=O)c1ncn(Cc3c(F)cccc3F)n1)CC2` (stereo not shown) [III-5, 1-(2,6-difluorobenzyl)-N-(9-(3-methoxyprop-1-yn-1-yl)-4-oxo-1,2,3,4,6,7-hexahydroazepino[3,2,1-hi]indol-3-yl)-1H-1,2,4-triazole-3-carboxamide], the EC50 in the test on HT-29 cells and in the test with U937 cells was less than 5 nM each time.

With `O=C(NC1CCc2cc(C#Cc3ccncc3)cc3c2N(CC3)C1=O)c1nnc(Cc2ccccc2F)[nH]1` (stereo not shown) [Compound I-11, 5-(2-fluorobenzyl)-N-(4-oxo-9-(pyridin-4-ylethynyl)-1,2,3,4,6,7-hexahydroazepino[3,2,1-hi]indol-3-yl)-4H-1,2,4-triazole-3-carboxamide], the EC50 in the test with HT-29 cells and in the test with U937 cells was 100 to 200 nM in each case.

In general, EC50 refers to the concentration at which the effect is half-maximal.
